# In patent US10981860B2, “Caspase inhibitor and pharmaceutical composition, use and therapeutic method thereof” (Chia Tai Tianqing Pharmaceutical Group Co., Ltd., priority 2016, dated 2021):
# System: Anti-Fas-induced Jurkat cells
# Assay: Anti-Fas-induced apoptosis of Jurkat cells in vitro (Caspase 3 substrate Ac-DEVD-AMC fluorescence)
# Assay type: cell-based
# Details: Homo sapiens; Jurkat Clone E6-1, Anti-Fas 50 ng/mL, 24 hours, Ac-DEVD-AMC 10 μM
row,Structure (SMILES),EC50
1,"CC(C)(C)c1ccccc1NC(=O)C(=O)N1CCCC[C@@H](C(=O)N[C@@H](CC(=O)O)C(=O)COc2c(F)c(F)cc(F)c2F)C1 (single isomer, unassigned) [Example 10]",41.6 nM
2,O=C(O)C[C@H](NC(=O)C1CC2CCC(C1)N2C(=O)OCc1ccccc1)C(=O)COc1c(F)c(F)cc(F)c1F (stereo partly drawn) [Example 14],275 nM
3,CC(C)(C)c1ccccc1NC(=O)C(=O)N1C[C@@H](C(=O)N[C@@H](CC(=O)O)C(=O)COc2c(F)c(F)cc(F)c2F)Cc2ccccc21 [Example 17],289 nM
4,Cc1ccc(C)c(CCNC(=O)C(=O)N2CCC(C(=O)N[C@@H](CC(=O)O)C(=O)COc3c(F)c(F)cc(F)c3F)CC2)c1 [Example 94],43.9 nM
5,CC(C)(C)c1ccccc1NC(=O)C(=O)N1CCOC(C(=O)N[C@@H](CC(=O)O)C(=O)COc2c(F)c(F)cc(F)c2F)C1 (stereo partly drawn) [Example 8],124 nM
6,CC(C)OC(=O)N1CCC(C(=O)N[C@@H](CC(=O)O)C(=O)COc2c(F)c(F)cc(F)c2F)CC1 [Example 68],23.2 nM
7,CC(C)(C)c1ccccc1NC(=O)C(=O)N[C@H]1CC[C@H](C(=O)N[C@@H](CC(=O)O)C(=O)COc2c(F)c(F)cc(F)c2F)CC1 [Example 6],552 nM
8,CC(C)(C)c1ccccc1NC(=O)C(=O)N1CC[C@H](C(=O)N[C@@H](CC(=O)O)C(=O)COc2c(F)c(F)cc(F)c2F)C2CCCCC21 (stereo partly drawn) [Example 18],557 nM
9,Cc1ccc(Cl)c(OC(=O)N2CCC(C(=O)N[C@@H](CC(=O)O)C(=O)COc3c(F)c(F)cc(F)c3F)CC2)c1 [Example 72],17.9 nM
10,CC(C)(C)c1ccccc1NC(=O)C(=O)N1CCCCC[C@H](C(=O)N[C@@H](CC(=O)O)C(=O)COc2c(F)c(F)cc(F)c2F)C1 [Example 114],66.3 nM
11,CC(C)(C)c1ccccc1NC(=O)C(=O)N1CCCCC[C@@H](C(=O)N[C@@H](CC(=O)O)C(=O)COc2c(F)c(F)cc(F)c2F)C1 [Example 113],46.2 nM
12,"CC(C)(C)c1ccccc1NC(=O)C(=O)N1CCCC[C@H](C(=O)N[C@@H](CC(=O)O)C(=O)COc2c(F)c(F)cc(F)c2F)C1 (single isomer, unassigned) [Example 9]",65.5 nM
13,Cn1c(C(=O)N2CCC(C(=O)N[C@@H](CC(=O)OC(C)(C)C)C(=O)COc3c(F)c(F)cc(F)c3F)CC2)cc2ccccc21 [Example 44],39.7 nM
14,O=C(O)C[C@H](NC(=O)c1ccc(NC(=O)OCc2ccccc2)cc1)C(=O)COc1c(F)c(F)cc(F)c1F [Example 23],215 nM
15,Cc1ccc(C)c(CNC(=O)C(=O)N2CCC(C(=O)N[C@@H](CC(=O)O)C(=O)COc3c(F)c(F)cc(F)c3F)CC2)c1 [Example 95],33.2 nM
16,O=C(O)C[C@H](NC(=O)C1CCN(C(=O)C(=O)Nc2cc(Cl)ccc2C(F)(F)F)CC1)C(=O)COc1c(F)c(F)cc(F)c1F [Example 88],33.8 nM
17,CC(C)OC(=O)N1CCC[C@@H](C(=O)N[C@@H](CC(=O)O)C(=O)COc2c(F)c(F)cc(F)c2F)C1 [Example 30],14.5 nM
18,O=C(O)C[C@H](NC(=O)C1CCN(C(=O)OCc2ccc(Cl)cc2Cl)CC1)C(=O)COc1c(F)c(F)cc(F)c1F [Example 91],62 nM
19,O=C(O)C[C@H](NC(=O)C1CCN(c2ncc3cc(F)ccc3n2)CC1)C(=O)COc1c(F)c(F)cc(F)c1F [Example 82],44 nM
20,Cn1c(C(=O)N2CCC(C(=O)N[C@@H](CC(=O)O)C(=O)COc3c(F)c(F)cc(F)c3F)CC2)nc2ccccc21 [Example 43],38.6 nM

# Results, then the compound that gave them:
row,EC50,Structure (SMILES)
1,27.2 nM,O=C(O)C[C@H](NC(=O)C1CCN(C(=O)c2nsc3ccccc23)CC1)C(=O)COc1c(F)c(F)cc(F)c1F [Example 51]
2,7.14 nM,O=C(O)C[C@H](NC(=O)[C@H]1COCCN(C(=O)c2noc3ccccc23)C1)C(=O)COc1c(F)c(F)cc(F)c1F [Example 127]
3,29.8 nM,O=C(O)C[C@H](NC(=O)C1CCN(c2nc3cc(F)ccc3o2)CC1)C(=O)COc1c(F)c(F)cc(F)c1F [Example 104]
4,29.3 nM,O=C(O)C[C@H](NC(=O)C1CCN(C(=O)OCc2ccccc2)CC1)C(=O)COc1c(F)c(F)cc(F)c1F [Example 71]
5,21.1 nM,O=C(O)C[C@H](NC(=O)[C@@H]1CCCN(C(=O)C(=O)NC2CCCC2)C1)C(=O)COc1c(F)c(F)cc(F)c1F [Example 27]
6,27.2 nM,CC(C)(C)c1ccccc1NC(=O)C(=O)N1CC=CC[C@H](C(=O)N[C@@H](CC(=O)O)C(=O)COc2c(F)c(F)cc(F)c2F)C1 [Example 11]
7,18.8 nM,Cc1c(F)cc(F)c(F)c1OCC(=O)[C@H](CC(=O)O)NC(=O)C1CCN(C(=O)c2noc3ccccc23)CC1 [Example 41]
8,5.8 nM,O=C(O)C[C@H](NC(=O)[C@@H]1CCCCN(C(=O)c2noc3ccccc23)C1)C(=O)COc1c(F)c(F)cc(F)c1F [Example 122]
9,8.1 nM,O=C(O)C[C@H](NC(=O)[C@@H]1COCCN(C(=O)C(=O)Nc2ccccc2Cl)C1)C(=O)COc1c(F)c(F)cc(F)c1F [Example 130]
10,14.6 nM,O=C(O)C[C@H](NC(=O)C1CCN(C(=O)OCC(F)(F)F)CC1)C(=O)COc1c(F)c(F)cc(F)c1F [Example 67]
11,19.8 nM,O=C(O)C[C@H](NC(=O)C1CCN(C(=O)Oc2cccc(Cl)c2Cl)CC1)C(=O)COc1c(F)c(F)cc(F)c1F [Example 103]
12,25.4 nM,O=C(O)C[C@H](NC(=O)C1CCN(C(=O)c2ccccn2)CC1)C(=O)COc1c(F)c(F)cc(F)c1F [Example 35]
13,9.37 nM,O=C(O)C[C@H](NC(=O)[C@@H]1COCCN(C(=O)c2cc(-c3ccccc3Cl)on2)C1)C(=O)COc1c(F)c(F)cc(F)c1F [Example 126]
14,5.65 nM,O=C(O)C[C@H](NC(=O)[C@H]1COCCN(C(=O)C(=O)Nc2ccccc2Cl)C1)C(=O)COc1c(F)c(F)cc(F)c1F [Example 129]
15,10.3 nM,O=C(O)C[C@H](NC(=O)C1CCN(C(=O)c2cccnc2)CC1)C(=O)COc1c(F)c(F)cc(F)c1F [Example 36]
16,12.6 nM,O=C(O)C[C@H](NC(=O)[C@@H]1CCCN(C(=O)C2CCCC2)C1)C(=O)COc1c(F)c(F)cc(F)c1F [Example 26]
17,27.6 nM,O=C(O)C[C@H](NC(=O)CC1CN(C(=O)C2CCCC2)C1)C(=O)COc1c(F)c(F)cc(F)c1F [Example 105]
18,22.1 nM,O=C(O)C[C@H](NC(=O)[C@@H]1CCCN(C(=O)OC2CCCC2)C1)C(=O)COc1c(F)c(F)cc(F)c1F [Example 28]
19,16.2 nM,O=C(O)C[C@H](NC(=O)[C@H]1COCCN(C(=O)c2cc(-c3ccccc3Cl)on2)C1)C(=O)COc1c(F)c(F)cc(F)c1F [Example 125]

# System: not listed separately
# Assay: Mouse pharmacokinetic study (intravenous and oral)
# Assay type: in vivo
# Details: Examples compared to reference compound IDN-6556
# Source text: Experimental Example 2: Mouse Pharmacokinetic Study
# The mice were randomly divided into two groups (one intravenous group and one oral group) or only oral group, 3 males in each group. The compounds were formulated into the designated preparations. The intravenous preparations should be filtered to provide clear solutions, and the oral preparations can be clear or can be uniform suspensions. All animals in the intravenous group were intravenously injected with the given doses of the compound preparations through tail veins. The oral group was administrated with the given doses of the preparations by gavage.
# Whole blood samples were collected from the other side of the tail vein at 8 time points (2 min, 5 min, 15 min, 30 min, 1 h, 2 h, 4 h and 8 h after administration) in the intravenous group, about 25 μL for each sample; whole blood samples were collected from the tail vein at 8 time points (2 min, 5 min, 15 min, 30 min, 1 h, 2 h, 4 h and 8 h after administration) in the oral group, about 25 μL for each sample.
# […] were added to a centrifuge tube containing anticoagulants, and centrifuged at 4° C., 3000 g for 15 min. The supernatant plasma was quickly frozen on dry ice and stored in a ⋅ refrigerator at −70° C.±10° C. until LC-MS/MS analysis was performed.
# The concentration data of plasma drug for the compounds were processed with the non-compartmental model using WinNonlin™ Version 6.3.0 (Pharsight, Mountain View, Calif.) pharmacokinetic software. The peak concentration (Cmax), time to peak concentration (Tmax) and last time for quantitative were obtained directly from the blood concentration-time chart.
# The following pharmacokinetic parameters were calculated by using Log-linear Trapezoidal method: elimination phase half-life (T1/2); apparent volume of distribution (Vdss) and clearance rate (CL); the average residence time of the drug in vivo from 0 to the last time point (MRT0-last); the average residence time of the drug in vivo from zero time to infinity (MRT0-inf); the area under time-plasma concentration curve from 0 to the last time point (AUC0-last); the area under time-plasma concentration curve from zero time to infinity (AUC0-inf); initial concentration (C0).
# For individual plasma concentrations of less than BQL, the concentrations appeared before Tmax were calculated as 0, and the concentrations appeared after Tmax were directly excluded. All parameters and ratios were reported in the forms of three significant digits.
# The pharmacokinetic parameters of this experiment were calculated according to the theoretical blood collection times and the theoretical dose concentrations as described in the protocol. The deviations between the actual dose concentrations and the theoretical concentrations were within the range of ±20%. The deviations between the actual blood collection times and the theoretical blood collection times were in conformity with the relevant SOP (the point within 1 hour after administration was within the range of ±1 min, and the others were within 5% of the theoretical time).
half-life (in words),in vivo exposure (in words),Structure (SMILES)
significantly improved,significantly improved,CC(C)(C)c1ccccc1NC(=O)C(=O)N1CCC(C(=O)N[C@@H](CC(=O)O)C(=O)COc2c(F)c(F)cc(F)c2F)CC1 [Example 7]
,significantly improved,O=C(O)C[C@H](NC(=O)C1CCN(C(=O)OC2CCCC2)CC1)C(=O)COc1c(F)c(F)cc(F)c1F [Example 69]
,significantly improved,O=C(O)C[C@H](NC(=O)C1CCN(C(=O)C2CCCC2)CC1)C(=O)COc1c(F)c(F)cc(F)c1F [Example 49]
relatively short,low,"C[C@H](NC(=O)C(=O)Nc1ccccc1C(C)(C)C)C(=O)N[C@@H](CC(=O)O)C(=O)COc1c(F)c(F)cc(F)c1F [IDN-6556, reference compound]"

# Same assay, conditions: compared to reference compound IDN-6556
row,oral bioavailability (in words),Structure (SMILES)
1,significantly improved,CC(C)(C)c1ccccc1NC(=O)C(=O)N1CCC(C(=O)N[C@@H](CC(=O)O)C(=O)COc2c(F)c(F)cc(F)c2F)CC1 [Example 7]

# Same assay, conditions: intravenous injection 1 mpk
Apparent volume of distribution,Area under the concentration-time curve,Clearance rate,Half-life,Structure (SMILES)
0.653 L/kg,0.852 µM·h,38.6 mL/min/kg,52.2 min,O=C(O)C[C@H](NC(=O)C1CCN(C(=O)C2CCCC2)CC1)C(=O)COc1c(F)c(F)cc(F)c1F [Example 49]
0.82 L/kg,0.446 µM·h,106 mL/min/kg,15 min,"C[C@H](NC(=O)C(=O)Nc1ccccc1C(C)(C)C)C(=O)N[C@@H](CC(=O)O)C(=O)COc1c(F)c(F)cc(F)c1F [IDN-6556, reference compound]"

# Same assay, conditions: male, plasma, 10 mg/kg, oral administration 10 mpk, read-out: Bioavailability
row,Bioavailability,Structure (SMILES)
1,≤ 4%,"C[C@H](NC(=O)C(=O)Nc1ccccc1C(C)(C)C)C(=O)N[C@@H](CC(=O)O)C(=O)COc1c(F)c(F)cc(F)c1F [IDN-6556, reference compound]"

# Same assay, conditions: oral administration 10 mpk
Area under the concentration-time curve,Peak concentration,Time to peak concentration,Bioavailability,Structure (SMILES)
3.657 µM·h,1636 nM,0.833 h,,CC(C)(C)c1ccccc1NC(=O)C(=O)N1CCC(C(=O)N[C@@H](CC(=O)O)C(=O)COc2c(F)c(F)cc(F)c2F)CC1 [Example 7]
4.18 µM·h,1993 nM,0.5 h,,O=C(O)C[C@H](NC(=O)C1CCN(C(=O)OC2CCCC2)CC1)C(=O)COc1c(F)c(F)cc(F)c1F [Example 69]
1.708 µM·h,405 nM,1 h,20.1%,O=C(O)C[C@H](NC(=O)C1CCN(C(=O)C2CCCC2)CC1)C(=O)COc1c(F)c(F)cc(F)c1F [Example 49]
0.197 µM·h,227 nM,0.25 h,4.4%,"C[C@H](NC(=O)C(=O)Nc1ccccc1C(C)(C)C)C(=O)N[C@@H](CC(=O)O)C(=O)COc1c(F)c(F)cc(F)c1F [IDN-6556, reference compound]"
